Measurements published in patent publication US20070092474A1, “Carnitine salt, preliposome which contains it and dermocosmetic formula for topical use based upon said carnitine salt” (priority 2003, published 2007).
Several values for one entry are separate records, joined by “and”; a condition that tells them apart may be missing. Equal values may be shown once.

System: skin blemishes caused by cellulite and localised adiposity
Test: Thigh circumference measured with a measuring tape, dermatological test of the cosmetic gel
Type: in vivo, female volunteers
Parameters: RIGHT THIGH CIRCUMFERENCE 1/3 T0 / RIGHT THIGH CIRCUMFERENCE 3/3 T15 / RIGHT THIGH CIRCUMFERENCE 3/3 T30 / RIGHT THIGH CIRCUMFERENCE 3/3 T60 / RIGHT THIGH CIRCUMFERENCE 1/3 T15 / RIGHT THIGH CIRCUMFERENCE 1/3 T60 / RIGHT THIGH CIRCUMFERENCE 2/3 T0 / RIGHT THIGH CIRCUMFERENCE 2/3 T15 / RIGHT THIGH CIRCUMFERENCE 2/3 T30 / RIGHT THIGH CIRCUMFERENCE 2/3 T60 / RIGHT THIGH CIRCUMFERENCE 3/3 T0 / LEFT THIGH CIRCUMFERENCE 3/3 T60 / LEFT THIGH CIRCUMFERENCE 1/3 T15 / LEFT THIGH CIRCUMFERENCE 1/3 T30 / LEFT THIGH CIRCUMFERENCE 1/3 T60 / LEFT THIGH CIRCUMFERENCE 2/3 T0 / LEFT THIGH CIRCUMFERENCE 2/3 T15 / LEFT THIGH CIRCUMFERENCE 3/3 T0: unit not given beside the values
Protocol: A dermatological test was carried out on 25 female volunteers between 18 and 65 years of age, with the backing of the Department of Physiological and Pharmacological Sciences of the university of Pavia. The investigation aimed to check the modification of three anatomical-physiological parameters, qualifying the unaesthetic-functional aspect connected to the manifestation of so-called cellulite and subcutaneous hypertriglyceridaemia: measurement of the skin folds, measurement of the circumference of the thighs, thermographic skin measurement.
The test stretched out over 60 days with the continual daily application of the aforementioned preparation of cosmetic gel. The measurements were carried out after 15, 30 and 60 days. The detail of the test protocol and of the results obtained is shown hereafter.
25 female volunteers aged between 18 and 65, with the presence of skin blemishes caused by cellulite and localised adiposity, were selected according to the following criteria: good general state of health, absence of skin pathologies, not being under medication, commitment not to vary the normal daily routine, no medical history of atopy.
The samples were tested by uniformly applying them on “Glute SX Glute DJ (Femoris Posto SX Femoris Posto DX Femoris Ant. SX Femoris Ant. DX” every day at least once per day for the entire duration of the test.
At the time of inclusion in the study and during the subsequent checks after 15 days (T15), after 30 days (T30) and after 60 days (T60) of treatment the following instrumental measurements were taken: • plicometry (through a plicometer) • thigh circumference (through a measuring tape broken into millimetres) • contact thermography (through liquid crystal thermographic plates).

[1] = MEDIA of 25 volunteers, T0 at inclusion, before treatment
[2] = MEDIA of 25 volunteers, after 15 days of daily gel application
[3] = MEDIA of 25 volunteers, after 30 days of daily gel application
[4] = MEDIA of 25 volunteers, after 60 days of daily gel application
[5] = individual volunteer, T0 at inclusion, before treatment
[6] = individual volunteer, after 15 days of daily gel application
[7] = individual volunteer, after 30 days of daily gel application
[8] = individual volunteer, after 60 days of daily gel application

## carnitine hydroxycitrate [carnitine hydroxy citrate]
[1]
  LEFT THIGH CIRCUMFERENCE 1/3 T0, MEDIA: 53.1
  LEFT THIGH CIRCUMFERENCE 2/3 T0, MEDIA: 50.2
  LEFT THIGH CIRCUMFERENCE 3/3 T0, MEDIA: 40.3
  RIGHT THIGH CIRCUMFERENCE 1/3 T0, MEDIA: 53.1
  RIGHT THIGH CIRCUMFERENCE 2/3 T0, MEDIA: 50.3
  RIGHT THIGH CIRCUMFERENCE 3/3 T0, MEDIA: 40.4
[2]
  LEFT THIGH CIRCUMFERENCE 1/3 T15, MEDIA: 52.7
  LEFT THIGH CIRCUMFERENCE 2/3 T15, MEDIA: 49.7
  LEFT THIGH CIRCUMFERENCE 3/3 T15, MEDIA: 39.8
  RIGHT THIGH CIRCUMFERENCE 1/3 T15, MEDIA: 53.3
  RIGHT THIGH CIRCUMFERENCE 2/3 T15, MEDIA: 49.2
  RIGHT THIGH CIRCUMFERENCE 3/3 T15, MEDIA: 39.5
[3]
  LEFT THIGH CIRCUMFERENCE 1/3 T30, MEDIA: 51.6
  LEFT THIGH CIRCUMFERENCE 2/3 T30, MEDIA: 48.8
  LEFT THIGH CIRCUMFERENCE 3/3 T30, MEDIA: 38.7
  RIGHT THIGH CIRCUMFERENCE 1/3 T30, MEDIA: 51.8
  RIGHT THIGH CIRCUMFERENCE 2/3 T30, MEDIA: 48.8
  RIGHT THIGH CIRCUMFERENCE 3/3 T30, MEDIA: 38.8
[4]
  LEFT THIGH CIRCUMFERENCE 1/3 T60, MEDIA: 50.7
  LEFT THIGH CIRCUMFERENCE 2/3 T60, MEDIA: 47.9
  LEFT THIGH CIRCUMFERENCE 3/3 T60, MEDIA: 38.1
  RIGHT THIGH CIRCUMFERENCE 1/3 T60, MEDIA: 50.7
  RIGHT THIGH CIRCUMFERENCE 2/3 T60, MEDIA: 47.7
  RIGHT THIGH CIRCUMFERENCE 3/3 T60, MEDIA: 38.0
[5]
  LEFT THIGH CIRCUMFERENCE 1/3 T0: 55.0 and 52.8 (2×) and 51.7 and 64.0 and 55.7 (3×) and 51.0 and 47.6 and 49.0 and 52.5 and 56.6 and 58.1 and 55.2 and 47.1 and 47.0 and 48.5 and 52.1 and 50.2 and 52.7 and 49.7 and 60.6 and 48.2 and 59.2
  LEFT THIGH CIRCUMFERENCE 2/3 T0: 49.9 and 51.3 and 49.0 and 58.4 and 52.4 and 46.9 and 46.2 and 47.9 (2×) and 50.4 and 52.9 and 55.9 (2×) and 56.7 and 48.9 and 46.7 and 52.6 and 44.0 and 45.4 (2×) and 52.0 and 51.4 and 48.2 and 44.9 and 54.6
  LEFT THIGH CIRCUMFERENCE 3/3 T0: 41.2 (2×) and 39.7 (2×) and 48.0 and 37.6 (2×) and 36.4 (2×) and 37.7 and 38.4 and 39.8 and 37.8 and 43.1 and 43.2 and 37.4 and 38.7 (2×) and 37.9 and 47.2 and 44.2 and 38.6 and 43.8 and 36.3 and 46.4
  RIGHT THIGH CIRCUMFERENCE 1/3 T0: 55.0 and 53.2 and 52.0 (2×) and 64.7 and 55.7 (2×) and 50.6 and 48.1 and 49.0 and 53.0 and 56.9 and 59.0 and 55.2 and 52.6 and 47.0 (2×) and 48.3 and 52.2 and 54.9 and 50.2 and 50.8 and 60.8 and 48.2 and 56.0
  RIGHT THIGH CIRCUMFERENCE 2/3 T0: 49.9 and 51.3 and 49.0 and 58.4 and 52.5 and 47.2 and 46.5 and 47.9 (2×) and 50.4 and 52.9 and 55.9 and 56.8 and 49.2 and 46.7 and 52.6 and 44.0 and 45.4 (2×) and 52.0 and 51.4 and 48.2 and 45.3 and 55.6 and 54.6
  RIGHT THIGH CIRCUMFERENCE 3/3 T0: 41.2 (2×) and 39.7 and 48.0 and 37.6 (2×) and 36.4 (2×) and 37.7 and 38.4 (2×) and 39.8 and 37.8 and 45.3 and 43.2 and 37.4 and 38.6 and 39.0 and 37.9 and 39.5 and 47.5 and 44.1 and 43.8 and 36.3 and 46.4
[6]
  LEFT THIGH CIRCUMFERENCE 1/3 T15: 54.5 and 52.3 (2×) and 51.2 and 63.5 and 55.2 (3×) and 50.5 and 47.1 and 48.5 and 52.0 and 56.1 and 57.6 and 54.7 and 46.6 and 46.5 and 48.0 and 51.6 and 49.7 and 52.2 and 49.2 and 60.5 and 47.7 and 58.7
  LEFT THIGH CIRCUMFERENCE 2/3 T15: 49.4 and 50.8 and 48.5 and 57.9 and 51.9 and 46.4 and 45.7 and 47.4 (2×) and 49.9 and 52.4 and 55.4 (2×) and 56.2 and 48.4 and 46.2 and 52.1 and 43.5 and 44.9 (2×) and 51.5 and 50.9 and 47.7 and 44.4 and 54.1
  LEFT THIGH CIRCUMFERENCE 3/3 T15: 40.7 (2×) and 39.2 (2×) and 47.5 and 37.1 (2×) and 35.9 (2×) and 37.2 and 37.9 and 39.3 and 37.3 and 42.6 and 42.7 and 36.9 and 38.2 (2×) and 37.4 and 46.7 and 43.7 and 38.1 and 43.3 and 35.8 and 45.9
  RIGHT THIGH CIRCUMFERENCE 1/3 T15: 55.9 and 52.8 and 53.2 and 65.3 and 55.3 and 49.4 and 48.4 and 49.8 and 53.3 and 57.6 and 59.2 and 54.3 and 50.5 and 48.1 and 56.3 and 48.0 (2×) and 48.8 and 51.8 and 54.5 and 51.0 and 50.8 and 50.4 and 60.4 and 59.8
  RIGHT THIGH CIRCUMFERENCE 2/3 T15: 48.2 and 49.6 and 47.3 (2×) and 56.7 and 50.7 and 46.2 (2×) and 44.5 and 49.8 and 52.3 and 55.6 and 56.5 and 48.7 and 45.0 and 50.9 and 44.0 and 45.2 and 51.8 and 51.0 and 47.9 and 43.2 and 54.2 and 43.7 and 52.9
  RIGHT THIGH CIRCUMFERENCE 3/3 T15: 40.6 and 40.8 and 37.7 (3×) and 49.2 and 38.5 (2×) and 35.3 and 37.2 and 37.1 and 39.7 and 44.5 and 42.3 and 36.6 and 39.2 and 35.5 and 38.7 and 39.4 and 43.2 and 37.5 and 36.4 and 43.9 and 35.8 and 45.5
[7]
  LEFT THIGH CIRCUMFERENCE 1/3 T30: 53.4 and 51.2 (2×) and 50.1 and 62.4 and 54.2 and 49.2 and 46.0 and 47.4 and 50.9 and 55.0 and 56.5 and 53.6 and 45.5 and 54.1 and 45.4 and 46.9 and 50.5 and 54.0 and 49.7 and 52.3 and 48.1 and 59.0 and 46.6 and 57.6
  LEFT THIGH CIRCUMFERENCE 2/3 T30: 48.5 and 49.9 and 47.6 and 57.0 and 51.0 and 45.5 and 44.8 and 46.5 (2×) and 49.0 and 51.5 and 54.5 (2×) and 55.3 and 47.5 and 45.3 and 51.2 and 42.6 and 44.0 (2×) and 50.6 and 50.0 and 46.8 and 43.5 and 53.2
  LEFT THIGH CIRCUMFERENCE 3/3 T30: 39.5 (2×) and 38.0 (2×) and 46.3 and 35.9 (2×) and 34.7 (2×) and 36.0 and 36.7 and 38.1 (2×) and 36.1 and 41.4 and 41.5 and 35.7 and 37.0 (2×) and 36.2 and 45.5 and 43.6 and 42.1 and 34.6 and 44.7
  RIGHT THIGH CIRCUMFERENCE 1/3 T30: 54.5 and 51.4 and 51.8 and 63.9 and 53.9 and 48.0 and 47.0 and 48.4 and 51.9 and 56.2 and 57.8 and 52.9 and 49.3 and 46.7 and 53.6 and 47.1 and 46.5 and 49.9 and 53.0 and 48.6 and 48.5 and 49.0 and 59.0 and 46.4 and 58.4
  RIGHT THIGH CIRCUMFERENCE 2/3 T30: 48.2 and 48.0 and 46.8 and 56.4 and 50.3 and 46.5 and 44.3 and 44.6 (2×) and 49.6 and 51.7 and 55.4 and 56.0 and 48.6 and 45.0 and 50.0 and 44.0 and 50.6 and 51.0 and 47.0 and 47.8 and 43.0 and 53.9 and 44.2 and 51.3
  RIGHT THIGH CIRCUMFERENCE 3/3 T30: 40.5 and 40.3 and 36.6 (2×) and 48.1 and 38.2 and 34.2 and 36.4 (2×) and 38.7 (2×) and 38.4 and 43.4 and 41.0 and 36.2 and 36.8 (2×) and 35.2 and 37.8 and 38.3 and 42.5 and 35.7 and 42.8 and 35.6 and 44.3
[8]
  LEFT THIGH CIRCUMFERENCE 1/3 T60: 52.7 and 50.5 (2×) and 49.4 and 61.7 and 53.4 (2×) and 48.7 and 44.9 and 46.7 and 50.0 and 53.7 and 55.8 and 51.7 and 44.8 and 52.9 and 44.7 and 46.2 and 49.8 and 48.5 and 50.4 and 47.4 and 57.9 and 45.9 and 56.9
  LEFT THIGH CIRCUMFERENCE 2/3 T60: 47.6 and 49.0 and 46.7 and 56.1 and 50.1 and 44.6 and 43.9 and 45.6 (2×) and 48.1 and 50.6 and 53.6 (2×) and 54.4 and 46.6 and 44.4 and 50.3 and 41.7 and 43.1 (2×) and 49.7 and 49.1 and 45.9 and 42.6 and 52.3
  LEFT THIGH CIRCUMFERENCE 3/3 T60: 39.0 (2×) and 37.5 (2×) and 45.8 and 35.4 (2×) and 34.2 (2×) and 35.5 and 36.2 and 37.6 and 35.6 and 41.6 (2×) and 41.0 and 35.2 and 36.5 (2×) and 35.7 and 45.0 and 42.0 and 36.4 and 34.1 and 44.2
  RIGHT THIGH CIRCUMFERENCE 1/3 T60: 53.8 and 50.7 and 50.0 and 62.4 and 53.2 and 47.3 and 46.0 and 47.2 and 51.0 and 55.5 and 56.7 and 52.0 and 48.4 and 44.7 and 52.8 and 45.0 and 45.9 and 49.3 and 51.8 and 48.1 and 48.5 and 48.3 and 57.8 and 45.7 and 56.5
  RIGHT THIGH CIRCUMFERENCE 2/3 T60: 46.8 and 48.1 and 46.5 and 56.4 and 49.2 and 43.7 and 44.5 and 44.7 and 47.2 and 49.7 and 53.8 and 56.0 and 46.3 and 43.5 (2×) and 49.4 and 44.3 and 50.2 and 48.3 and 45.9 and 45.0 and 41.7 and 52.7 and 43.2 and 50.8
  RIGHT THIGH CIRCUMFERENCE 3/3 T60: 38.2 (2×) and 39.3 and 36.2 (3×) and 47.7 and 37.0 (2×) and 33.8 and 35.7 and 35.6 and 43.0 and 40.8 and 34.8 and 37.7 and 34.2 and 37.2 and 37.9 and 41.7 and 36.0 and 33.7 and 42.4 and 34.3 and 44.0
